Series [1] in a line: MTT assay for cell viability (cytotoxicity). The format is cell-based, human. The conditions noted are these: human; HepG2 cells, 48 h incubation, MTT. As to the method:
The hepatocyte cell line HepG2 cells obtained from the Type Culture Collection of the Chinese Academy of Sciences (Shanghai, China) were maintained in high-glucose DMEM (Gibco) supplemented with 10% fetal bovine serum (FBS) and 1% penicillin-streptomycin in an atmosphere of 5% CO2 at 37 °C.
Into a 96-well plate, 1 × 10^3 HepG2 cells per well were seeded. After 24 h, stock solutions of test compounds in DMSO were diluted in DMEM to ≤0.1% final DMSO concentration. Cells were treated with various concentrations (2.5–25 µM) of tested compounds for 48 h, and the MTT solution (0.5 mg/mL) was added. After 4 h of incubation at 37 °C for MTT-formazan formation, the supernatant was discarded and 100 µL of DMSO was applied into each well to dissolve formazan crystals. Absorbance at 490 nm was determined spectrophotometrically by using a microplate reader (Epoch, BioTek Instruments, Inc., Winooski, VT, USA).

For orientation: CC50 means the concentration giving 50% cytotoxicity. A higher CC50 goes with lower toxicity to the cells. As usually defined, the melting point is the temperature, or range, at which the solid turns liquid. `CCC(=O)Nc1ccc(-c2cnc(N)nc2-c2c[nH]c3ccc(Br)cc23)cc1` [A1, N-(4-(2-amino-4-(5-bromo-1H-indol-3-yl)pyrimidin-5-yl)phenyl) Propionamide]: the melting point was 193.6 to 194.2 °C. In series [1], this compound displayed a CC50 at 48 h of 16.7 µM.

In turn, `CCCC(=O)Nc1ccc(-c2cnc(N)nc2-c2c[nH]c3ccc(Br)cc23)cc1` [A2, N-(4-(2-amino-4-(5-bromo-1H-indol-3-yl)pyrimidin-5-yl)phenyl) Butyramide] returned a melting point of 187.6 to 188.3 °C. In series [1], the CC50 at 48 h is greater than 25 µM.

`CC(C)C(=O)Nc1ccc(-c2cnc(N)nc2-c2c[nH]c3ccc(Br)cc23)cc1` [A3, N-(4-(2-amino-4-(5-bromo-1H-indol-3-yl)pyrimidin-5-yl)phenyl) Isobutyramide] came in with a melting point of 172.6 to 173.3 °C. The compound further registered a CC50 at 48 h in series [1] of 10.8 µM.

Take `CC(C)(C)C(=O)Nc1ccc(-c2cnc(N)nc2-c2c[nH]c3ccc(Br)cc23)cc1` [A4, N-(4-(2-amino-4-(5-bromo-1H-indol-3-yl)pyrimidin-5-yl)phenyl) Pivalamide]: the melting point was 139.6 to 140.3 °C. This compound also yielded a cytotoxic concentration (CC50) at 48 h in series [1] of 11.9 µM.

In turn, `Nc1ncc(-c2ccc(NC(=O)Cc3ccccc3)cc2)c(-c2c[nH]c3ccc(Br)cc23)n1` [A5, N-(4-(2-amino-4-(5-bromo-1H-indol-3-yl)pyrimidin-5-yl)phenyl)-2-phenylacetamide] returned a melting point of 207.6 to 208.4 °C. In series [1], this compound had a CC50 at 48 h of 20.9 µM.

As to `Nc1ncc(-c2ccc(NC(=O)c3ccccc3)cc2)c(-c2c[nH]c3ccc(Br)cc23)n1` [A6, N-(4-(2-amino-4-(5-bromo-1H-indol-3-yl)pyrimidin-5-yl)phenyl) Benzamide], the melting point lay within 187.9 to 188.6 °C. The compound further returned a CC50 at 48 h in series [1] of 12.5 µM.

Compound `Nc1ncc(-c2ccc(NC(=O)c3ccccc3F)cc2)c(-c2c[nH]c3ccc(Br)cc23)n1` [A7, N-(4-(2-amino-4-(5-bromo-1H-indol-3-yl)pyrimidin-5-yl)phenyl)-2-fluorobenzamide] returned a melting point of 159.6 to 160.4 °C. Besides, the CC50 at 48 h in series [1] is 18.1 µM.

In turn, `Nc1ncc(-c2ccc(NC(=O)c3cccc(F)c3)cc2)c(-c2c[nH]c3ccc(Br)cc23)n1` [A8, N-(4-(2-amino-4-(5-bromo-1H-indol-3-yl)pyrimidiN-5-yl)phenyl)-3-fluorobenzamide] had a melting point of 183.6 to 184.3 °C. This compound yielded a CC50 at 48 h in series [1] of 6.8 µM.

Turning to `Nc1ncc(-c2ccc(NC(=O)c3ccc(F)cc3)cc2)c(-c2c[nH]c3ccc(Br)cc23)n1` [A9, N-(4-(2-amino-4-(5-bromo-1H-indol-3-yl)pyrimidin-5-yl)phenyl)-4-fluorobenzamide], the melting point is 178.6 to 179.4 °C. Further, the CC50 at 48 h in series [1] was determined as 6 µM.

As for `Nc1ncc(-c2ccc(NC(=O)c3ccccc3Cl)cc2)c(-c2c[nH]c3ccc(Br)cc23)n1` [A10, N-(4-(2-amino-4-(5-bromo-1H-indol-3-yl)pyrimidin-5-yl)phenyl)-2-chlorobenzamide], the melting point lay within 211.5 to 212.4 °C. This compound also returned a CC50 at 48 h in series [1] of 18.4 µM.

`Nc1ncc(-c2ccc(NC(=O)c3cccc(Cl)c3)cc2)c(-c2c[nH]c3ccc(Br)cc23)n1` [A11, N-(4-(2-amino-4-(5-bromo-1H-indol-3-yl)pyrimidin-5-yl)phenyl)-3-chlorobenzamide]: the melting point was in the range of 204.8 to 205.2 °C. The same compound yielded a CC50 at 48 h in series [1] of 18.5 µM.

Turning to `Nc1ncc(-c2ccc(NC(=O)c3ccc(Cl)cc3)cc2)c(-c2c[nH]c3ccc(Br)cc23)n1` [A12, N-(4-(2-amino-4-(5-bromo-1H-indol-3-yl)pyrimidin-5-yl)phenyl)-4-chlorobenzamide], the melting point lay in the range of 261.7 to 262.5 °C. For the same compound, in series [1], half-maximal cytotoxicity (CC50 at 48 h) was put at 7.5 µM.

Take `Nc1ncc(-c2ccc(NC(=O)c3cccc(Br)c3)cc2)c(-c2c[nH]c3ccc(Br)cc23)n1` [A14, N-(4-(2-amino-4-(5-bromo-1H-indol-3-yl)pyrimidin-5-yl)phenyl)-3-bromobenzamide]: the melting point fell in the range of 176.6 to 177.3 °C. Besides, in series [1], the CC50 at 48 h was greater than 25 µM.

`Nc1ncc(-c2ccc(NC(=O)c3ccc(Br)cc3)cc2)c(-c2c[nH]c3ccc(Br)cc23)n1` [A15, N-(4-(2-amino-4-(5-bromo-1H-indol-3-yl)pyrimidin-5-yl)phenyl)-4-bromobenzamide] gave a melting point of 276.4 to 277.3 °C. Further, the CC50 at 48 h in series [1] was 7.1 µM.

`Nc1ncc(-c2ccc(NC(=O)c3ccccc3C(F)(F)F)cc2)c(-c2c[nH]c3ccc(Br)cc23)n1` [A16, N-(4-(2-amino-4-(5-bromo-1H-indol-3-yl)pyrimidin-5-yl)phenyl)-2-(trifluoromethyl) Benzamide] registered a melting point of 163.6 to 164.3 °C. In series [1], this compound showed a CC50 at 48 h of 9.9 µM.

`Nc1ncc(-c2ccc(NC(=O)c3cccc(C(F)(F)F)c3)cc2)c(-c2c[nH]c3ccc(Br)cc23)n1` [A17, N-(4-(2-amino-4-(5-bromo-1H-indol-3-yl)pyrimidin-5-yl)phenyl)-3-(trifluoromethyl) Benzamide]: the melting point is 172.6 to 173.3 °C. Also, half-maximal cytotoxicity in series [1] (CC50 at 48 h) was put at 14.3 µM.

`Nc1ncc(-c2ccc(NC(=O)c3ccc(C(F)(F)F)cc3)cc2)c(-c2c[nH]c3ccc(Br)cc23)n1` [A18, N-(4-(2-amino-4-(5-bromo-1H-indol-3-yl)pyrimidin-5-yl)phenyl)-4-(trifluoromethyl) Benzamide] showed a melting point of 312.7 to 313.4 °C. In series [1], the CC50 at 48 h came to 4.2 µM.

`Cc1ccccc1C(=O)Nc1ccc(-c2cnc(N)nc2-c2c[nH]c3ccc(Br)cc23)cc1` [A19, N-(4-(2-amino-4-(5-bromo-1H-indol-3-yl)pyrimidin-5-yl)phenyl)-2-methylbenzamide] came in with a melting point of 170.7 to 171.6 °C. Besides, the CC50 at 48 h in series [1] was found to be 10.3 µM.

The compound `Cc1cccc(C(=O)Nc2ccc(-c3cnc(N)nc3-c3c[nH]c4ccc(Br)cc34)cc2)c1` [A20, N-(4-(2-amino-4-(5-bromo-1H-indol-3-yl)pyrimidin-5-yl)phenyl)-3-methylbenzamide] registered a melting point of 211.8 to 212.9 °C. The same compound gave a CC50 at 48 h in series [1] of 13.2 µM.

The compound `COc1ccccc1C(=O)Nc1ccc(-c2cnc(N)nc2-c2c[nH]c3ccc(Br)cc23)cc1` [A22, N-(4-(2-amino-4-(5-bromo-1H-indol-3-yl)pyrimidin-5-yl)phenyl)-2-methoxybenzamide] gave a melting point of 154.9 to 155.6 °C. In series [1], the CC50 at 48 h was greater than 25 µM.

The compound `COc1cccc(C(=O)Nc2ccc(-c3cnc(N)nc3-c3c[nH]c4ccc(Br)cc34)cc2)c1` [A23, N-(4-(2-amino-4-(5-bromo-1H-indol-3-yl)pyrimidin-5-yl)phenyl)-3-methoxybenzamide] came in with a melting point of 172.6 to 173.3 °C. Also, the CC50 at 48 h in series [1] was 14.7 µM.

`COc1ccc(C(=O)Nc2ccc(-c3cnc(N)nc3-c3c[nH]c4ccc(Br)cc34)cc2)cc1` [A24, N-(4-(2-amino-4-(5-bromo-1H-indol-3-yl)pyrimidin-5-yl)phenyl)-4-methoxybenzamide] gave a melting point of 184.6 to 185.3 °C. Half-maximal cytotoxicity in series [1] (CC50 at 48 h) was put at 4.3 µM.

Regarding `Nc1ncc(-c2ccc(NC(=O)c3cc(F)ccc3F)cc2)c(-c2c[nH]c3ccc(Br)cc23)n1` [A25, N-(4-(2-amino-4-(5-bromo-1H-indol-3-yl)pyrimidin-5-yl)phenyl)-2,5-difluorobenzamide], the melting point lay within 163.5 to 164.3 °C. The CC50 at 48 h in series [1] came out at 8.9 µM.

Turning to `Nc1ncc(-c2ccc(NC(=O)c3cccs3)cc2)c(-c2c[nH]c3ccc(Br)cc23)n1` [A27, N-(4-(2-amino-4-(5-bromo-1H-indol-3-yl)pyrimidin-5-yl)phenyl) thiophene-2-carboxamide], the melting point was 303.8 to 304.4 °C. Moreover, the midpoint of cytotoxicity in series [1], the CC50 at 48 h, lay at 10 µM.

Regarding `Nc1ncc(-c2ccc(NC(=O)c3cc4ccccc4cn3)cc2)c(-c2c[nH]c3ccc(Br)cc23)n1` [A28, N-(4-(2-amino-4-(5-bromo-1H-indol-3-yl)pyrimidin-5-yl)phenyl) isoquinoline-3-carboxamide], the melting point fell in the range of 189.3 to 190.2 °C. For the same compound, the CC50 at 48 h in series [1] is greater than 25 µM.

The compound `Nc1ncc(-c2ccc(NC(=O)c3ccc4ccccc4c3)cc2)c(-c2c[nH]c3ccc(Br)cc23)n1` [A29, N-(4-(2-amino-4-(5-bromo-1H-indol-3-yl)pyrimidin-5-yl)phenyl)-2-naphthamide] came in with a melting point of 189.3 to 190.2 °C. Further, in series [1], the CC50 at 48 h was greater than 25 µM.

`Clc1cccc(Nc2nccc(-c3c[nH]c4ccc(Br)cc34)n2)c1` [B5, 4-(5-Bromo-1H-indol-3-yl)-N-(3-chlorophenyl) pyrimidin-2-amine] showed a melting point of 210.3 to 211.4 °C. The compound further gave a CC50 at 48 h in series [1] greater than 25 µM.

For `Brc1cccc(Nc2nccc(-c3c[nH]c4ccc(Br)cc34)n2)c1` [B8, 4-(5-Bromo-1H-indol-3-yl)-N-(3-bromophenyl) pyrimidin-2-amine], the melting point lay within 214.8 to 215.6 °C. This compound gave a CC50 at 48 h in series [1] of 18.7 µM.

For the compound `FC(F)(F)c1cccc(Nc2nccc(-c3c[nH]c4ccc(Br)cc34)n2)c1` [B11, 4-(5-Bromo-1H-indol-3-yl)-N-(3-(trifluoromethyl)phenyl) pyrimidin-2-amine], the melting point was 171.8 to 172.3 °C. The CC50 at 48 h in series [1] was 17.6 µM.

For the compound `FC(F)(F)c1ccc(Nc2nccc(-c3c[nH]c4ccc(Br)cc34)n2)cc1` [B12, 4-(5-Bromo-1H-indol-3-yl)-N-(4-(trifluoromethyl)phenyl) pyrimidin-2-amine], the melting point fell in the range of 279.5 to 280.3 °C. The compound also came in with a CC50 at 48 h in series [1] greater than 25 µM.
